Assay results taken from US4923813A, “Monoclonal antibody-based immunoassay for cyclic DNA adducts resulting from exposure to crotonaldehyde or acrolein” (American Health Foundation, priority 1988, dated 1990).

Legend:
monoclonal antibody CA4 = assay: competitive ELISA, inhibition of binding of antibody CA4 to structure 1a,b-KLH conjugate; design: species or system mouse; conditions: plate coated with structure 1a,b-KLH conjugate
Excerpt: (§1) Screening for Antibody Production. In order to screen the fused cells for the production of antibody specific for the cyclic deoxyguanosine adducts, an enzyme-linked immunosorbent assay ("ELISA") may be used. ELISA links soluble antigens to insoluble antibodies or soluble antibodies to solid phase antigens in a manner that allows both immunolgical and enzymatic activity to be retained.
(§2) ELISA techniques for antigen or antibody quantification are well-known to the art. By way of example, wells of a 96-well polystyrene ELISA plate may be coated with 10 ng of structure a, b-KLH conjugate, diluted in Phosphate buffered saline (PBS), for 1 h at room temperature. The wells may be washed twice with PBS containing 0.1% Tween 20 and twice with distilled H2 O. From this point all reagents may be diluted in PBS containing 0.1% bovine serum albumin ("BSA"). Wells are filled with 50 μl of PBS-BSA followed by 50 μl of culture supernatant and incubated at room temperature for 1 h. For competitive ELISA, adduct standards or test samples are mixed with the monoclonal antibody and added to the well. The wells are washed and 100 μl of alkaline phosphatase-labeled goat anti-mouse 1 gG antibody (Kirkegaard & Perry Laboratories, Inc., Gaithersburg, Md.) are added to each well and incubated at room temperature for 1 h. After washing, 100 μl of substrate solution (1 mg/ml of p-nitrophenylphosphate in 1M diethanolamine buffer, pH 9.8) are added to each well and incubated at room temperature for 30 min. […] In quantitative experiments the concentration of unknown samples may be determined by comparison to a standard curve relating the log of the inhibitor concentration to the logit of the percentage of inhibition [formula]
(§3) Using the above-identified procedures, a single mouse was boosted with the structure 1a,b-KLH conjugate for 4 consecutive days and the fusion was performed on the fifth day.

monoclonal antibody CA1 = assay: competitive ELISA, inhibition of binding of antibody CA1 to structure 1a,b-KLH conjugate; design: species or system mouse; conditions: for pmol of compound needed for 50% inhibition of binding in the competitive ELISA, CA1: plate coated with structure 1a,b-KLH conjugate
Excerpt: as §1, §2, §3

monoclonal antibody CA2 = assay: competitive ELISA, inhibition of binding of antibody CA2 to structure 1a,b-KLH conjugate; design: species or system mouse; conditions: for pmol of compound needed for 50% inhibition of binding in the competitive ELISA, CA2: plate coated with structure 1a,b-KLH conjugate
Excerpt: as §1, §2, §3

monoclonal antibody CA3 = assay: competitive ELISA, inhibition of binding of antibody CA3 to structure 1a,b-KLH conjugate; design: species or system mouse; conditions: for pmol of compound needed for 50% inhibition of binding in the competitive ELISA, CA3: plate coated with structure 1a,b-KLH conjugate
Excerpt: as §1, §2, §3

[1] = system: the four antibodies (CA1, CA2, CA3, CA4); assay: competitive ELISA, reactivity of the four antibodies; type: binding, mouse; conditions: all four antibodies; O6-methyldeoxyguanosine: with the exception of CA3
Excerpt: as §1, §2, §3

SMILES | pmol of compound needed for 50% inhibition of binding in the competitive ELISA, CA4 (monoclonal antibody CA4) | pmol of compound needed for 50% inhibition of binding in the competitive ELISA, CA1 (monoclonal antibody CA1) | pmol of compound needed for 50% inhibition of binding in the competitive ELISA, CA2 (monoclonal antibody CA2) | pmol of compound needed for 50% inhibition of binding in the competitive ELISA, CA3 (monoclonal antibody CA3) | affinity of antibody CA1 (monoclonal antibody CA1) | specificity of antibody CA2 (monoclonal antibody CA2) | reactivity / cross-reactivity with the four antibodies [1] | affinity / reactivity of antibody CA3 (monoclonal antibody CA3)
Nc1ccn([C@H]2C[C@H](O)[C@@H](CO)O2)c(=O)n1 [Deoxycytosine, reference compound] | > 110,000 pmol | > 110,000 pmol | > 110,000 pmol | > 110,000 pmol | – | – | – | –
Cc1cn([C@H]2C[C@H](O)[C@@H](CO)O2)c(=O)[nH]c1=O [Thymidine, reference compound] | > 100,000 pmol | > 100,000 pmol | > 100,000 pmol | > 100,000 pmol | – | – | – | –
CC1CC(O)n2c(nc3[nH]cnc3c2=O)N1 (stereo not drawn) [1,base] | 30 pmol | 8.6 pmol | 69 pmol | 143 pmol | – | – | Cross-reactivity | –
O=c1c2ncn([C@H]3C[C@H](O)[C@@H](CO)O3)c2nc2n1C(O)C(O)N2 (stereo partly drawn) [1e] | 41,470 pmol | 113 pmol | 156 pmol | 22 pmol | – | – | Cross-reactivity | –
CC1CC(O)n2c(nc3c(ncn3[C@H]3C[C@H](O)[C@@H](CO)O3)c2=O)N1 (mixture of isomers) [1a, 8R, 6R- and 8S, 6S-3-(2-deoxy-3-β-erythro-pentofuranosyl) 5,6,7,8-tetrahydro-8-hydroxy-6-methylpyrimido(1,2-a)purine-10(3H)one] | 10 pmol | 12.8 pmol | 17 pmol | 0.2 pmol | lower affinity | – | strongest | highest affinity of the four antibodies
O=c1c2ncn([C@H]3C[C@H](O)[C@@H](CO)O3)c2nc2n1CCC(O)N2 (stereo partly drawn) [1c] | 112 pmol | 90 pmol | 9 pmol | 5 pmol | – | – | Cross-reactivity | less reactive than the above three molecules
CC1CC(O)n2c(nc3c(ncn3[C@H]3C[C@H](O)[C@@H](CO)O3)c2=O)N1 (mixture of isomers) [1b, 8R, 6R- and 8S, 6S-3-(2-deoxy-3-β-erythro-pentofuranosyl) 5,6,7,8-tetrahydro-8-hydroxy-6-methylpyrimido(1,2-a)purine-10(3H)one] | 0.9 pmol | 0.2 pmol | 0.4 pmol | 10 pmol | high apparent affinity | – | strongest | –
O=c1c2ncn([C@H]3C[C@H](O)[C@@H](CO)O3)c2nc2n1C(O)CCN2 (stereo partly drawn) [1d] | 7.9 pmol | 0.8 pmol | 0.2 pmol | 0.9 pmol | – | most specific | Cross-reactivity | –

More lines, main results first:

pmol of compound needed for 50% inhibition of binding in the competitive ELISA, CA4 (monoclonal antibody CA4) | pmol of compound needed for 50% inhibition of binding in the competitive ELISA, CA1 (monoclonal antibody CA1) | pmol of compound needed for 50% inhibition of binding in the competitive ELISA, CA2 (monoclonal antibody CA2) | pmol of compound needed for 50% inhibition of binding in the competitive ELISA, CA3 (monoclonal antibody CA3) | affinity of antibody CA1 (monoclonal antibody CA1) | specificity of antibody CA2 (monoclonal antibody CA2) | SMILES | reactivity / cross-reactivity with the four antibodies [1] | affinity / reactivity of antibody CA3 (monoclonal antibody CA3)
5,370 pmol | 2,564 pmol | 698 pmol | 14 pmol | – | – | Nc1nc2c(ncn2[C@H]2C[C@H](O)[C@@H](CO)O2)c(=O)[nH]1 [Deoxyguanosine, reference compound] | significant cross-reactivity | –
> 100,000 pmol | 56,790 pmol | 51,270 pmol | 235 pmol | – | – | COc1nc(N)nc2c1ncn2[C@H]1C[C@H](O)[C@@H](CO)O1 [reference compound] | unreactive | –
> 80,000 pmol | > 80,000 pmol | > 80,000 pmol | > 80,000 pmol | – | – | Nc1ncnc2c1ncn2[C@H]1C[C@H](O)[C@@H](CO)O1 [Deoxyadenosine, reference compound] | – | –
